Source: patent publication US5047397A, “Linear analogs of atrial natriuretic peptides” (California Biotechnology Inc., priority 1988, dated 1991)
*1 amine or outer side, *2 acyl side, *3 side chain or, on linkers, in order; H or OH if unused. Where a SMILES comes first, the peptide text is derived from it. Bridges are numbered along the chain shown (N, C = ends). Where no end group is shown, it is not given here. [ ]: non-standard residue; d: D form. The star is where a group is joined. X8 = N=C(N)NCCC[C@@H](C(=O)[*:2])N(CC1CCN([*:3])CC1)[*:1]; Propanoyl(3-indol-3-yl) = O=C(CCc1c[nH]c2ccccc12)*; Phenylacetyl(4-Ph) = O=C(Cc1ccc(-c2ccccc2)cc1)*; Acetyl(2-naphthyloxy) = O=C(COc1ccc2ccccc2c1)*; Acetyl(2-naphthyl) = O=C(Cc1ccc2ccccc2c1)*; X7 = O=C(CN1CCC(C(=O)*)CC1)c1ccc2ccccc2c1; Fmoc = O=C(OCC1c2ccccc2-c2ccccc21)*; X1 = O=C(Cc1ccc(N[*:1])cc1)[*:2]; Phg = N[C@H](C(=O)O)c1ccccc1; 4Abz = Nc1ccc(C(=O)O)cc1; Orn = NCCC[C@H](N)C(=O)O; Aib = CC(C)(N)C(=O)O; Ava = NCCCCC(=O)O; X3 = CCC(C)CN*

Biological target: T1, specific ANP receptor sites on BASM or BAE cells (Bos taurus, UniProt P10730)
T1 construct: specific receptor sites on BASM or BAE cells; endogenous in cells; host or cells: cultured BASM and BAE cells
T1 sequence (P10730 42-537): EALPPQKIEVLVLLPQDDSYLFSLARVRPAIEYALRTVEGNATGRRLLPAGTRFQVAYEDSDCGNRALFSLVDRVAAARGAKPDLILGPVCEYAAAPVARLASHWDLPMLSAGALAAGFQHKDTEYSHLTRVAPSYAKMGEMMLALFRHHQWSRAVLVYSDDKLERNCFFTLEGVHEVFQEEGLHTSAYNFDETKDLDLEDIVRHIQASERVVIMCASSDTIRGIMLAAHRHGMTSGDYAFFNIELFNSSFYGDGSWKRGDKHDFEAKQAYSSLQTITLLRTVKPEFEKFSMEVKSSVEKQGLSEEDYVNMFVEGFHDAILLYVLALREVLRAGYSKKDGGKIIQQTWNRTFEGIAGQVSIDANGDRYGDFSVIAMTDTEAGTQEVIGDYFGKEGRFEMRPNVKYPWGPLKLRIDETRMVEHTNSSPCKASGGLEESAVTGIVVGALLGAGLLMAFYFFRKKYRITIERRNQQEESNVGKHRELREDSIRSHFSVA
Experiment: Competitive displacement receptor binding of (125I)-rANP(126-150) on cultured cells
Parameters: species or system bovine
Settings: for Ki(app): concentration of unlabeled peptide displacing 50% of maximal binding of 0.5 nM (125I)-rANP(126-150), BASM or BAE cells
Excerpt: Analogous "competitive displacement" receptor binding assays are considered commonplace in the art for examining specific ligand-receptor interactions.
Assuming these ANP analogs act at one or more ANP receptor sites, then increased receptor affinity should reflect increased biological potency.

Molecule | Ki(app) | receptor binding / activity as judged by Ki, in words
CC[C@H](C)[C@@H]1NC(=O)[C@H](CCCNC(=N)N)NC(=O)[C@H](CC(=O)O)NC(=O)[C@H]([C@@H](C)CC)NC(=O)[C@H](CCCNC(=N)N)NC(=O)CNC(=O)CNC(=O)[C@@H](NC(=O)[C@H](CO)NC(=O)[C@H](CO)NC(=O)[C@@H](N)CCCNC(=N)N)CSSC[C@@H](C(=O)N[C@@H](CC(N)=O)C(=O)N[C@@H](CO)C(=O)N[C@@H](Cc2ccccc2)C(=O)N[C@@H](CCCNC(=N)N)C(=O)N[C@@H](Cc2ccc(O)cc2)C(=O)O)NC(=O)CNC(=O)[C@H](CC(C)C)NC(=O)CNC(=O)[C@H](CO)NC(=O)[C@H](CCC(N)=O)NC(=O)[C@H](C)NC(=O)CNC1=O [AP23, R--S--S--C--G--G--R--I--D--R--I--G--A--Q--S--G--L--G--C--N--S--F--R--Y] (H-RSSCGGRIDRIGAQSGLGCNSFRY-OH; disulfide 4-19) | 0.00776 µM | 
CC[C@H](C)[C@H](NC(=O)[C@H](CCCNC(=N)N)NC(=O)[C@H](CC(=O)O)NC(=O)[C@@H](NC(=O)[C@H](CCCN)NC(=O)Cc1ccc(NC(=O)COc2ccc3ccccc3c2)cc1)[C@@H](C)CC)C(N)=O [AP815] ({Acetyl(2-naphthyloxy)}-[X1][Orn]IDRI-NH2) | 0.01 µM | 
CC[C@H](C)[C@H](NC(=O)[C@H](CCCNC(=N)N)NC(=O)[C@H](CC(=O)O)NC(=O)[C@@H](NC(=O)[C@H](CC(C)C)NC(=O)CNC(=O)CNC(=O)Cc1ccc2ccccc2c1)[C@@H](C)CC)C(N)=O [AP512, (2-NA)--G--G--L--I--D--R--I--NH2] ({Acetyl(2-naphthyl)}-GGLIDRI-NH2) | > 0.16 µM | very low, if any, activity
CC[C@H](C)[C@H](NC(=O)[C@H](CCCNC(=N)N)NC(=O)[C@H](CC(=O)O)NC(=O)[C@@H](NC(=O)[C@H](CCCNC(=N)N)NC(=O)Cc1ccc(NC(=O)Cc2ccc3ccccc3c2)cc1)[C@@H](C)CC)C(N)=O [AP564] ({Acetyl(2-naphthyl)}-[X1]RIDRI-NH2) | 0.0101 µM | 
CC[C@H](C)[C@H](NC(=O)[C@H](CCCNC(=N)N)NC(=O)[C@H](CC(=O)O)NC(=O)[C@@H](NC(=O)[C@H](CCCNC(=N)N)NCC1CCN(C(=O)Cc2ccc3ccccc3c2)CC1)[C@@H](C)CC)C(N)=O [AP704] (H-[X8](Acetyl(2-naphthyl))IDRI-NH2) | 0.017 µM | 
CC[C@H](C)[C@H](NC(=O)[C@H](CCCNC(=N)N)NC(=O)[C@H](CC(=O)O)NC(=O)[C@@H](NC(=O)[C@H](CCCNC(=N)N)NC(=O)CNC(=O)CNC(=O)Cc1ccc(-c2ccccc2)cc1)[C@@H](C)CC)C(N)=O [AP317, (4-BPA)--G--G--R--I--D--R--I--NH2] ({Phenylacetyl(4-Ph)}-GGRIDRI-NH2) | 0.1238 µM | 
FGGRIDRIGAA-NH2 [AP104, F--G--G--R--I--D--R--I--G--A--A--NH2] | 0.0025 µM | 
CC[C@H](C)[C@H](NC(=O)[C@H](CCCNC(=N)N)NC(=O)[C@H](CC(=O)O)NC(=O)[C@@H](NC(=O)[C@H](CCCCNC(C)=O)NC(=O)Cc1ccc(NC(=O)COc2ccc3ccccc3c2)cc1)[C@@H](C)CC)C(N)=O [AP801] ({Acetyl(2-naphthyloxy)}-[X1]K(Ac)IDRI-NH2) | 0.00395 µM | 
CC[C@H](C)[C@H](NC(=O)[C@H](CCCNC(=N)N)NC(=O)[C@H](CC(=O)O)NC(=O)[C@@H](NC(=O)[C@H](CCCNC(=N)N)NC(=O)CCCCNC(=O)OCC1c2ccccc2-c2ccccc21)[C@@H](C)CC)C(N)=O [AP323, (FMOC)--NH(CH2)4 CO--R--I--D--R--I--NH2] ({Fmoc-Ava}-RIDRI-NH2) | 0.1626 µM | 
CC[C@H](C)[C@H](NC(=O)[C@H](CCCCN)NC(=O)[C@H](CC(=O)O)NC(=O)[C@@H](NC(=O)[C@H](CCCNC(=N)N)NC(=O)Cc1ccc(NC(=O)Cc2ccc3ccccc3c2)cc1)[C@@H](C)CC)C(N)=O [AP799] ({Acetyl(2-naphthyl)}-[X1]RIDKI-NH2) | 0.0036 µM | 
CCNC(=O)CNC(=O)[C@@H](NC(=O)[C@H](CCCNC(=N)N)NC(=O)[C@H](CC(=O)O)NC(=O)[C@@H](NC(=O)[C@H](CCCNC(=N)N)NC(=O)CCCCNC(=O)Cc1ccc2ccccc2c1)[C@@H](C)CC)[C@@H](C)CC [AP530, (2-NA)--NH(CH2)4 CO--R--I--D--R--I--G--NH--(ethyl)] ({Acetyl(2-naphthyl)-Ava}-RIDRIG-NHEt) | 0.0505 µM | 
CC[C@H](C)[C@H](NC(=O)[C@H](CCCNC(=N)N)NC(=O)[C@H](CC(=O)O)NC[C@@H](NC(=O)[C@H](CCCNC(=N)N)NC(=O)Cc1ccc(NC(=O)Cc2ccc3ccccc3c2)cc1)[C@@H](C)CC)C(N)=O [AP701] | 0.0603 µM | 
CC[C@H](C)[C@H](NC(=O)[C@H](CCCNC(=N)N)NC(=O)[C@H](CC(=O)O)NC(=O)[C@@H](NC(=O)[C@H](CCCNC(=N)N)NC(=O)c1ccc(NC(=O)COc2ccc3ccccc3c2)cc1)[C@@H](C)CC)C(N)=O [AP791] ({Acetyl(2-naphthyloxy)-4Abz}-RIDRI-NH2) | 0.0311 µM | 
AFGGRIDRIGY-NH2 [AP176, A--F--G--G--R--I--D--R--I--G--Y--NH2] | 0.00665 µM | 
CC[C@H](C)[C@H](NC(=O)[C@H](CCCNC(=N)N)NC(=O)[C@H](CC(=O)O)NC(=O)[C@@H](NC(=O)[C@H](CCCNC(=N)N)NC(=O)C1CCN(CC(=O)c2ccc3ccccc3c2)CC1)[C@@H](C)CC)C(N)=O [AP574] (X7-RIDRI-NH2) | 0.0265 µM | 
CCC(C)CNC(=O)[C@H](CCCNC(=N)N)NC(=O)[C@H](CC(=O)O)NC(=O)[C@@H](NC(=O)[C@H](CCCNC(=N)N)NC(=O)CNC(=O)CNC(=O)Cc1ccc2ccccc2c1)[C@@H](C)CC (stereo partly drawn) [AP511, (2-NA)GGRIDRNHCH2CH(CH3)CH3 CH3] ({Acetyl(2-naphthyl)}-GGRIDR-X3) | 0.0847 µM | 
CC[C@H](C)[C@H](NC(=O)[C@H](CCCNC(=N)N)NC(=O)CNC(=O)CNC(=O)Cc1ccc2ccccc2c1)C(=O)N[C@@H](CC(=O)O)C(=O)N[C@@H](CCCNC(=N)N)C(=O)N[C@H](Cc1ccccc1)C(N)=O [AP537, (2-NA)--G--G--R--I--D--R--F^ --NH2)] ({Acetyl(2-naphthyl)}-GGRIDR[dF]-NH2) | > 0.16 µM | 
CC[C@H](C)[C@H](NC(=O)[C@H](CCCNC(=N)N)NC(=O)[C@H](CC(=O)O)NC(=O)[C@@H](NC(=O)[C@H](CCCNC(=N)N)NC(=O)C(C)(C)NC(=O)CNC(=O)Cc1ccc2ccccc2c1)[C@@H](C)CC)C(N)=O [AP321, (2-NA)--G--(Aib)--R--I--D--R--I--NH2] ({Acetyl(2-naphthyl)}-G[Aib]RIDRI-NH2) | 0.033 µM | 
CC[C@H](C)[C@H](NC(=O)[C@H](CCCNC(=N)N)NC(=O)CNC(=O)CNC(=O)Cc1ccc2ccccc2c1)C(=O)N[C@@H](CC(=O)O)C(=O)N[C@@H](CCCNC(=N)N)C(=O)N[C@H](C(N)=O)c1ccccc1 [AP595, (2-NA)--G--G-- R--I--D--R--Phg--NH2] ({Acetyl(2-naphthyl)}-GGRIDR[Phg]-NH2) | 0.1 µM | 
CC[C@H](C)[C@H](NC(=O)[C@H](CCCNC(=N)N)NC(=O)[C@H](CC(=O)O)NC(=O)[C@@H](NC(=O)[C@H](CCCNC(=N)N)NC(=O)CNC(=O)CNC(=O)CCc1c[nH]c2ccccc12)[C@@H](C)CC)C(=O)NCC(=O)N[C@@H](C)C(N)=O [AP313, (IP)--G--G--R--I--D--R--I--G--A--NH2] ({Propanoyl(3-indol-3-yl)}-GGRIDRIGA-NH2) | 0.00452 µM | 
